Results reported in ChEMBL document CHEMBL1201862, “PubChem BioAssay data set” (2004).
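Test compounds were applied to cells in 96-well plates for 48 hours at 5 doses. GI50 = concentration required for 50% inhibition of growth.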 The source made the active and inactive calls. Cut-off read from the data, not from the text of the source: active = GI50 up to about 1.1 µM and inactive = higher.

Assays:
Assay in all cases: NCI anticancer screen, dose series, 48 h
[1] = system: OVCAR-5
[2] = system: MDA-MB-231
[3] = system: RXF 393
[4] = system: UACC-257
[5] = system: DU-145
[6] = system: HL-60
[7] = system: Hs-578T
[8] = system: COLO 205
[9] = system: EKVX
[10] = system: SK-MEL-2
[11] = system: MOLT-4
[12] = system: SK-OV-3
[13] = system: SF-539
[14] = system: HCC 2998
[15] = system: NCI-H460
[16] = system: A549
[17] = system: M14
[18] = system: MDA-MB-435
[19] = system: 786-0
[20] = system: Malme-3M

| SMILES | GI50 [1] | GI50 [2] | GI50 [3] | GI50 [4] | GI50 [5] | GI50 [6] | GI50 [7] | GI50 [8] | GI50 [9] | GI50 [10] | GI50 [11] | GI50 [12] | GI50 [13] | GI50 [14] | GI50 [15] | GI50 [16] | GI50 [17] | GI50 [18] | GI50 [19] | GI50 [20] |
| --- | --- | --- | --- | --- | --- | --- | --- | --- | --- | --- | --- | --- | --- | --- | --- | --- | --- | --- | --- | --- |
| C/C=C/c1cc2c(cc1O)CC[C@@H]1[C@@H]2CC[C@]2(C)[C@@H](O)CC[C@@H]12 | 10.8 µM (inactive) | 0.317 µM (active) | 0.1 µM (active) | 0.132 µM (active) | 0.0849 µM (active) | 0.0183 µM (active) | 0.0653 µM (active) | 11.7 µM (inactive) | 5.07 µM (inactive) | 1.51 µM (inactive) | 0.0409 µM (active) | 0.183 µM (active) | 0.0237 µM (active) | 0.705 µM (active) | 0.0275 µM (active) | 0.0536 µM (active) | 0.041 µM (active) | 0.0102 µM (active) | 0.053 µM (active) | 0.164 µM (active) |
| CC[C@@H]1/C=C/C=C/C[C@H](C)[C@@H](O)[C@@H](C)C(=O)[C@H](C)[C@@H](O)[C@H](C)C(=O)[C@H](C)[C@@H](O)[C@H](C)/C=C/C(=O)O[C@H]2[C@@H](C)[C@@H](CC1)O[C@@]1(CC[C@@H](C)[C@@H](CC(C)O)O1)[C@@H]2C (stereo not given in full) | 3.63 µM (inactive) | 4.35 µM (inactive) | 3.07 µM (inactive) | < 0.0025 µM (active) | 3.37 µM (inactive) | 0.00847 µM (active) | 6.03 µM (inactive) | 0.00408 µM (active) | < 0.0025 µM (active) | 4.58 µM (inactive) | 0.815 µM (active) | 7.76 µM (inactive) | 6.46 µM (inactive) | 1.78 µM (inactive) | 2.17 µM (inactive) | 0.012 µM (active) | 2.47 µM (inactive) | 3.11 µM (inactive) | 5.9 µM (inactive) | 6.34 µM (inactive) |
| O=C(Nc1ccc(Cl)cc1)c1cc(S(=O)(=O)Nc2n[nH]c(=O)n2-c2ccccc2)c(S)cc1Cl | > 100 µM (inactive) | > 100 µM (inactive) | > 100 µM (inactive) | > 100 µM (inactive) | > 100 µM (inactive) | > 100 µM (inactive) | > 100 µM (inactive) | > 100 µM (inactive) | > 100 µM (inactive) | > 100 µM (inactive) | 6.22 µM (inactive) | > 100 µM (inactive) | > 100 µM (inactive) | > 100 µM (inactive) | > 100 µM (inactive) | > 100 µM (inactive) | > 100 µM (inactive) | > 100 µM (inactive) | > 100 µM (inactive) | > 100 µM (inactive) |
| O=C1C(NCCc2ccc(O)c(O)c2)=CC(=O)c2ncccc21 | 19.7 µM (inactive) | 5.14 µM (inactive) | 13.8 µM (inactive) | 5.36 µM (inactive) | 9.86 µM (inactive) | 15.8 µM (inactive) | 5.82 µM (inactive) | 14.7 µM (inactive) | 17.6 µM (inactive) | 3.1 µM (inactive) | 8.51 µM (inactive) | 15.7 µM (inactive) | 14.2 µM (inactive) | 13 µM (inactive) | 9.46 µM (inactive) | 14.9 µM (inactive) | 14.7 µM (inactive) | 1.7 µM (inactive) | 15.3 µM (inactive) | 4.95 µM (inactive) |
| NC(=S)NS(=O)(=O)c1ccc(Cl)cc1Cl | > 100 µM (inactive) | > 100 µM (inactive) | > 100 µM (inactive) | > 100 µM (inactive) | > 100 µM (inactive) | > 100 µM (inactive) | > 100 µM (inactive) | > 100 µM (inactive) | > 100 µM (inactive) | > 100 µM (inactive) | > 100 µM (inactive) | > 100 µM (inactive) | > 100 µM (inactive) | > 100 µM (inactive) | > 100 µM (inactive) | > 100 µM (inactive) | > 100 µM (inactive) | > 100 µM (inactive) | > 100 µM (inactive) | > 100 µM (inactive) |
| Nc1nc(Cl)cc(NCC2(CO)CC(CCc3ccccc3)C2)n1 (stereo not given) | > 100 µM (inactive) | > 81.1 µM (inactive) | 24.1 µM (inactive) | 0.461 µM (active) | > 100 µM (inactive) | 3.44 µM (inactive) | > 59.4 µM (inactive) | > 71.9 µM (inactive) | 2.83 µM (inactive) | 97.9 µM (inactive) | 8.38 µM (inactive) | > 100 µM (inactive) | > 100 µM (inactive) | > 100 µM (inactive) | 22.3 µM (inactive) | 9.16 µM (inactive) | > 100 µM (inactive) | > 100 µM (inactive) | > 71.8 µM (inactive) | > 100 µM (inactive) |
| CC(=O)Oc1ccc(C2SCc3nc4ccccc4n32)cc1 (stereo not given) | 69.5 µM (inactive) | 27.4 µM (inactive) | 24.2 µM (inactive) | 33.5 µM (inactive) | 51.5 µM (inactive) | 10.6 µM (inactive) | 32.5 µM (inactive) | 19.3 µM (inactive) | 26.9 µM (inactive) | 22.5 µM (inactive) | 16.1 µM (inactive) | 26.8 µM (inactive) | 41 µM (inactive) | 33 µM (inactive) | 41.1 µM (inactive) | 32.2 µM (inactive) | 48.6 µM (inactive) | 5.48 µM (inactive) | 39.4 µM (inactive) | 30.2 µM (inactive) |
| CN1CCc2cc(N)cc3c2C1Cc1ccc2c(c1-3)OCO2 (stereo not given) | 42.4 µM (inactive) | 49.2 µM (inactive) | 27.4 µM (inactive) | 22.5 µM (inactive) | 32.8 µM (inactive) | 28.4 µM (inactive) | 28.2 µM (inactive) | 30.1 µM (inactive) | 50.9 µM (inactive) | 36.1 µM (inactive) | 1.46 µM (inactive) | 44.9 µM (inactive) | 33.9 µM (inactive) | 19.6 µM (inactive) | 28.9 µM (inactive) | 37.2 µM (inactive) | 30.8 µM (inactive) | 9.59 µM (inactive) | 26.9 µM (inactive) | 20.9 µM (inactive) |
| c1ccc(CC2COC(c3cccs3)=N2)cc1 (stereo not given) | > 100 µM (inactive) | > 72.6 µM (inactive) | 24.5 µM (inactive) | > 100 µM (inactive) | 42.1 µM (inactive) | 37.3 µM (inactive) | 49.5 µM (inactive) | > 100 µM (inactive) | 66.2 µM (inactive) | 43.8 µM (inactive) | 47.8 µM (inactive) | > 68.9 µM (inactive) | > 45 µM (inactive) | > 73.8 µM (inactive) | > 86.5 µM (inactive) | 92.7 µM (inactive) | > 100 µM (inactive) | > 100 µM (inactive) | > 100 µM (inactive) | > 100 µM (inactive) |
| O=c1[nH]c2cc3[nH]c4ncccc4c(=O)c3cc2[nH]1 | > 10 µM (inactive) | > 10 µM (inactive) | > 10 µM (inactive) | > 10 µM (inactive) | > 10 µM (inactive) | > 10 µM (inactive) | > 10 µM (inactive) | > 10 µM (inactive) | > 10 µM (inactive) | > 10 µM (inactive) | > 10 µM (inactive) | > 10 µM (inactive) | > 10 µM (inactive) | > 10 µM (inactive) | > 10 µM (inactive) | > 10 µM (inactive) | > 10 µM (inactive) | > 10 µM (inactive) | > 10 µM (inactive) | > 10 µM (inactive) |
| O=C(NCCSSCCNC(=O)/C(Cc1ccc(O)c(Br)c1)=N/O)/C(Cc1ccc(O)c(Br)c1)=N/O [PSAMMAPLIN A] | 2.21 µM (inactive) | 1.78 µM (inactive) | 0.796 µM (active) | 1.6 µM (inactive) | 1.89 µM (inactive) | 0.426 µM (active) | 1.77 µM (inactive) | 1.64 µM (inactive) | 4.49 µM (inactive) | 1.1 µM (active) | 0.402 µM (active) | 0.933 µM (active) | 1.72 µM (inactive) | 2.17 µM (inactive) | 0.902 µM (active) | 1.44 µM (inactive) | 1.32 µM (inactive) | 1.51 µM (inactive) | 2.07 µM (inactive) | 0.597 µM (active) |
